Key:
[1] = test system: Latently infected Jurkat JLat 10.6 cells; conditions: HDAC inhibitor in combination with Compound 35, 36 hours, normalized against background of HDAC inhibitor alone
[2] = target: XIAP BIR3 (Homo sapiens (Human), UniProt P98170); test: XIAP BIR3 Ki; assay type: binding
[3] = target: XIAP BIR1/2 (Homo sapiens (Human), UniProt P98170); test: XIAP BIR1/2 Ki; assay type: binding
[4] = target: ML-IAP (Homo sapiens (Human), UniProt Q96CA5); test: ML-IAP Ki; assay type: binding
ML-IAP, sequence (Q96CA5 whole entry): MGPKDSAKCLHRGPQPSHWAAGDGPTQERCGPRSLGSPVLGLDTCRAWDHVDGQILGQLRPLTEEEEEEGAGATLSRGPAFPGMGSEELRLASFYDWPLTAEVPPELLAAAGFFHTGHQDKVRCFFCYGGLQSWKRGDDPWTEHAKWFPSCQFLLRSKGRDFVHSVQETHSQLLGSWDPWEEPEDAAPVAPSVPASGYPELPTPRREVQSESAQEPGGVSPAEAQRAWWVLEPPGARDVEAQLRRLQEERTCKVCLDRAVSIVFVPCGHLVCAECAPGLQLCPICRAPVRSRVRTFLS

XIAP BIR3, sequence (P98170 241-356): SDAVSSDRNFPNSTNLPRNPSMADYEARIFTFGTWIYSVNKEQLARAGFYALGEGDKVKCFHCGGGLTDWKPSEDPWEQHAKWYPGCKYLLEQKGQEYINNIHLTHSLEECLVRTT
XIAP BIR1/2, sequence (P98170 1-240): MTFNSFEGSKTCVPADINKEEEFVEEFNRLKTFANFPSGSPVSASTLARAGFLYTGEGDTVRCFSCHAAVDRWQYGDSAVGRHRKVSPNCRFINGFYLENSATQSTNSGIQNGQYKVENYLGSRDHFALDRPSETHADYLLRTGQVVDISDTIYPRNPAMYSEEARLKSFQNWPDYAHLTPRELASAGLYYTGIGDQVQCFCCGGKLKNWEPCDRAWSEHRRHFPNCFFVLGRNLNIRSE

Ki ([3]; Table B-1)	Molecule	Group: increase of GFP+ cells [1]	Ki ([2]; Table B-1)	further results
–	CCCC(=O)OCc1ccc(OC(=O)/C=C(C)/C=C/C=C(C)/C=C/C2=C(C)CCCC2(C)C)cc1 [ATRA-BA Hybrid, Retinoic acid, 4-[(1-oxobutoxy)methyl]phenyl ester]	A (A 0-25%)	–	–
–	CCC(=O)CCCCC[C@@H]1NC(=O)[C@H]2CCCCN2C(=O)[C@H]([C@@H](C)CC)NC(=O)[C@H](Cc2cn(OC)c3ccccc23)NC1=O [Apicidin]	C (C 50-75%)	–	–
–	Nc1ccccc1NC(=O)CCCCCCC(=O)Nc1ccccc1 [BML-210, Octanediamide, N1-(2-aminophenyl)-N8-phenyl-]	A (A 0-25%)	–	–
–	CC(C)(C)OC(=O)Nc1ccc(-c2cc(C(=O)NCCCCCCC(=O)NO)no2)cc1 [BML-281, Carbamic acid, N-[4-[3-[[[7-(hydroxyamino)-7-oxoheptyl]amino]carbonyl]-5-isoxazolyl]phenyl]-, 1,1-dimethylethyl ester]	B (B 25-50%)	–	–
–	CC(=O)Nc1ccc(C(=O)Nc2ccccc2N)cc1 [CI-994, Benzamide, 4-(acetylamino)-N-(2-aminophenyl)-]	A (A 0-25%)	–	–
–	CN[C@@H](C)C(=O)N[C@H]1CO[C@H]2CCC(C(=O)Nc3ccc(OC)cc3)N2C1=O (some centres unmarked) [Compound 3]	–	25 to 50 µM	–
–	CN[C@@H](C)C(=O)N[C@H]1CO[C@H]2CCC(C(=O)NCc3ccccc3)N2C1=O (some centres unmarked) [Compound 6]	–	25 to 50 µM	–
–	CN[C@@H](C)C(=O)N[C@H]1CO[C@H]2CCC(C(=O)Nc3ccc(OC)cc3)N2C1=O (some centres unmarked) [Compound 7]	–	25 to 50 µM	–
> 50 µM	CN[C@@H](C)C(=O)N[C@H]1CO[C@H]2CCC(C(=O)NC3CCCc4ccccc43)N2C1=O (some centres unmarked) [Compound 9]	–	≤ 25 µM	–
> 50 µM	CN[C@@H](C)C(=O)N[C@@H]1C(=O)N2C(C(=O)NC3CCCc4ccccc43)CC[C@@H]2O[C@@H]1C (some centres unmarked) [Compound 10]	–	≤ 25 µM	Ki ([4]; Table B-1): ≤ 25 µM
≤ 25 µM	CN[C@@H](C)C(=O)N[C@H]1CCO[C@H]2CCC(C(=O)Nc3cccc4ccccc34)N2C1=O (some centres unmarked) [Compound 13]	–	≤ 25 µM	–
> 50 µM	CN[C@@H](C)C(=O)N[C@H]1CCO[C@H]2CCC(C(=O)NC(c3ccccc3)c3ccccc3)N2C1=O (some centres unmarked) [Compound 14]	–	≤ 25 µM	Ki ([4]; Table B-1): ≤ 25 µM
≤ 25 µM	CN[C@@H](C)C(=O)N[C@H]1CCCNC2CCC(C(=O)Nc3cccc4ccccc34)N2C1=O (some centres unmarked) [Compound 17]	–	≤ 25 µM	–
–	CN[C@@H](C)C(=O)N[C@H]1CCO[C@H]2c3ccccc3C(C(=O)N[C@@H]3CCCc4ccccc43)N2C1=O (some centres unmarked) [Compound 17a]	–	–	Ki ([2]; Table 2-2): ≤ 25 µM; Ki ([4]; Table 2-2): ≤ 25 µM; Ki ([3]; Table 2-2): > 50 µM
–	CN[C@@H](C)C(=O)N[C@H]1CCO[C@H]2CC(C)(C)C(C(=O)N[C@@H]3CCCc4ccccc43)N2C1=O (some centres unmarked) [Compound 17b]	–	–	Ki ([2]; Table 2-2): ≤ 25 µM; Ki ([4]; Table 2-2): ≤ 25 µM; Ki ([3]; Table 2-2): ≤ 25 µM
–	CN[C@@H](C)C(=O)N[C@H]1CCS[C@H]2CC(C)(C)C(C(=O)N[C@@H]3CCCc4ccccc43)N2C1=O (some centres unmarked) [Compound 17c]	–	–	Ki ([2]; Table 2-2): ≤ 25 µM; Ki ([4]; Table 2-2): ≤ 25 µM
–	CC(=O)N(C)[C@@H](C)C(=O)N[C@H]1CCCN(C(C)=O)[C@H]2CCC(C(=O)Nc3cccc4ccccc34)N2C1=O (some centres unmarked) [Compound 19]	–	25 to 50 µM	–
> 50 µM	CN[C@@H](C)C(=O)N[C@H]1CCCN(C(C)=O)C2CCC(C(=O)NC3CCCc4ccccc43)N2C1=O (some centres unmarked) [Compound 20]	–	≤ 25 µM	–
> 50 µM	CN[C@@H](C)C(=O)N[C@H]1CCO[C@H]2CCC(C(=O)n3ccc4ccccc43)N2C1=O (some centres unmarked) [Compound 22]	–	25 to 50 µM	–
–	CN[C@@H](C)C(=O)N[C@H]1CCO[C@H]2CCC(C(=O)n3ccc4ccccc43)N2C1=O (some centres unmarked) [Compound 23]	–	25 to 50 µM	–
≤ 25 µM	CN[C@@H](C)C(=O)N[C@H]1CCO[C@H]2CC[C@@H](C(=O)Nc3cccc4ccccc34)N2C1=O [Compound 25]	–	≤ 25 µM	–

Ki ([3]; Table B-1)	Molecule	Group: increase of GFP+ cells [1]	Ki ([2]; Table B-1)	further results
> 50 µM	CN[C@@H](C)C(=O)N[C@H]1Cc2c([nH]c3ccccc23)[C@H]2CCC(C(=O)N[C@@H]3CCCc4ccccc43)N2C1=O (some centres unmarked) [Compound 30]	–	25 to 50 µM	–
≤ 25 µM	CN[C@@H](C)C(=O)N[C@H]1Cc2c([nH]c3ccccc23)[C@H]2CCC(C(=O)N[C@@H]3CCCc4ccccc43)N2C1=O (some centres unmarked) [Compound 31]	–	≤ 25 µM	–
≤ 25 µM	CN[C@@H](C)C(=O)N[C@H]1CCO[C@H]2CC(C)(C)C(C(=O)Nc3ccccc3SSc3ccccc3NC(=O)C3N4C(=O)[C@@H](NC(=O)[C@H](C)NC)CCO[C@H]4CC3(C)C)N2C1=O (some centres unmarked) [Compound 40]	–	≤ 25 µM	–
≤ 25 µM	CN[C@@H](C)C(=O)N[C@H]1CCS[C@H]2CCCC(C(=O)N[C@@H]3CCCc4ccccc43)N2C1=O (some centres unmarked) [Compound 41]	–	≤ 25 µM	–
≤ 25 µM	CN[C@@H](C)C(=O)N[C@H]1CCO[C@H]2CC3(CCCC3)C(C(=O)N[C@@H]3CCCc4ccccc43)N2C1=O (some centres unmarked) [Compound 43]	–	≤ 25 µM	–
≤ 25 µM	CN[C@@H](C)C(=O)N[C@H]1Cc2ccc(O)cc2[C@H]2CC(C)(C)C(C(=O)N[C@@H]3CCCc4ccccc43)N2C1=O (some centres unmarked) [Compound 45]	–	≤ 25 µM	–
–	CN(C)c1ccc(C(=O)NCCCCCCC(=O)NO)cc1 [Compound M344, Benzamide, 4-(dimethylamino)-N-[7-(hydroxyamino)-7-oxoheptyl]-]	C (C 50-75%)	–	–
–	Cc1cc(Cl)ccc1OCCCC(=O)NO [Droxinostat]	B (B 25-50%)	–	–
–	O=C(CCCCCCSc1ccc2ccccc2c1)NO [HNHA, Heptanamide, N-hydroxy-7-(2-naphthalenylthio)-]	B (B 25-50%)	–	–
–	Cc1ccc(C(=O)c2cc(C=CC(=O)NO)n(C)c2)cc1 [MC-1293, 2-Propenamide, N-hydroxy-3-[1-methyl-4-(4-methylbenzoyl)-1H-pyrrol-2-yl]-]	B (B 25-50%)	–	–
–	CC(C)C(=O)SCCCCCCC(=O)Nc1nc(-c2ccccc2)cs1 [NCH-51, Propanethioic acid, 2-methyl-, S-[7-oxo-7-[(4-phenyl-2-thiazolyl)amino]heptyl] ester]	A (A 0-25%)	–	–
–	CC(CC1OCCN(Cc2nc(=O)[nH][nH]2)C1c1ccc(F)cc1)c1cc(C(F)(F)F)cc(C(F)(F)F)c1 (centres unmarked) [NKL 22, 3H-1,2,4-Triazol-3-one, 5-[[2-[2-[3,5-bis(trifluoromethyl)phenyl]propyl]-3-(4-fluorophenyl)-4-morpholinyl]methyl]-1,2-dihydro-]	A (A 0-25%)	–	–
–	O=Nc1ccc(O)c2ncccc12 [NSC-3852, 8-Quinolinol, 5-nitroso-]	B (B 25-50%)	–	–
–	O=C([O-])CCCc1ccccc1.[Na+] [Phenylbutyrate•Na, Phenylbutyrate⋅Na]	A (A 0-25%)	–	–
–	O=C(CCCCCN1C(=O)c2cccc3cccc(c23)C1=O)NO [Scriptaid]	C (C 50-75%)	–	–
–	O=C(CCCCCCC(=O)NO)NO [Suberoyl bis-hydroxamic acid]	B (B 25-50%)	–	–
–	CC(/C=C/C(=O)NO)=C\[C@@H](C)C(=O)c1ccc(N(C)C)cc1 [Trichostatin A]	C (C 50-75%)	–	–
–	CCCC(CCC)C(=O)O [Valproic acid, valproic acid]	A (A 0-25%)	–	–
–	O=C(CCCCCCC(=O)Nc1ccc(F)cc1)NO [p-Fluoro-SAHA]	A (A 0-25%)	–	–
–	Oxamflatin	C (C 50-75%)	–	–

Molecule	Ki ([3]; Table B-1)	Group: increase of GFP+ cells [1]	Ki ([2]; Table B-1)	further results
CN[C@@H](C)C(=O)N[C@H]1CO[C@H]2CCC(C(=O)Nc3ccc(OC)cc3)N2C1=O (some centres unmarked) [Compound 4]	> 50 µM	–	25 to 50 µM	–
CN[C@@H](C)C(=O)N[C@H]1CO[C@H]2CCC(C(=O)NCc3ccccc3)N2C1=O (some centres unmarked) [Compound 5]	> 50 µM	–	25 to 50 µM	–
CN[C@@H](C)C(=O)N[C@H]1CO[C@H]2CCC(C(=O)Nc3ccc(Cl)cc3)N2C1=O (some centres unmarked) [Compound 8]	> 50 µM	–	25 to 50 µM	–
CN[C@@H](C)C(=O)N[C@@H]1C(=O)N2C(C(=O)Nc3cccc4ccccc34)CC[C@@H]2O[C@@H]1C (some centres unmarked) [Compound 11]	> 50 µM	–	25 to 50 µM	–
CN[C@@H](C)C(=O)N[C@H]1CCO[C@H]2CCC(C(=O)N[C@@H]3CCCc4ccccc43)N2C1=O (some centres unmarked) [Compound 12]	> 50 µM	–	≤ 25 µM	Ki ([4]; Table B-1): ≤ 25 µM
CN[C@@H](C)C(=O)N[C@@H]1C(=O)N2C(C(=O)NC(c3ccccc3)c3ccccc3)CC[C@@H]2O[C@@H]1C (some centres unmarked) [Compound 15]	> 50 µM	–	25 to 50 µM	–
CN[C@@H](C)C(=O)N[C@H]1CCCNC2CCC(C(=O)NC3CCCc4ccccc43)N2C1=O (some centres unmarked) [Compound 16]	25 to 50 µM	–	≤ 25 µM	–
CC(=O)N(C)[C@@H](C)C(=O)N[C@H]1CCCN(C(C)=O)[C@H]2CCC(C(=O)Nc3cccc4ccccc34)N2C1=O (some centres unmarked) [Compound 18]	> 50 µM	–	25 to 50 µM	–
CN[C@@H](C)C(=O)N[C@H]1CCN[C@H]2CCC(C(=O)N[C@@H]3CCCc4ccccc43)N2C1=O (some centres unmarked) [Compound 28]	> 50 µM	–	25 to 50 µM	–
CN[C@@H](C)C(=O)N[C@H]1CCN[C@H]2CCC(C(=O)N[C@@H]3CCCc4ccccc43)N2C1=O (some centres unmarked) [Compound 29]	> 50 µM	–	> 50 µM	–
CN[C@@H](C)C(=O)N[C@H]1CCS(=O)(=O)[C@H]2CC[C@@H](C(=O)N[C@@H]3CCCc4ccccc43)N2C1=O [Compound 37]	> 50 µM	–	≤ 25 µM	–
CN[C@@H](C)C(=O)N[C@H]1CCS(=O)(=O)[C@H]2CC[C@H](C(=O)N[C@@H]3CCCc4ccccc43)N2C1=O [Compound 38]	> 50 µM	–	25 to 50 µM	–
CN[C@@H](C)C(=O)N[C@H]1CCO[C@H]2CC[C@H](C(=O)N[C@@H]3CCOc4ccccc43)N2C1=O [Compound 39]	> 50 µM	–	25 to 50 µM	–
